Results on two molecules are retold here after PMC6803640, “Oligomeric state, hydrodynamic properties and target recognition of human Calcium and Integrin Binding protein 2 (CIB2)” (Scientific Reports, 2019).

One data set has as its target T1, human CIB2 (Homo sapiens, UniProt O75838).
T1 construct: made in house
T1 sequence (O75838 1-187): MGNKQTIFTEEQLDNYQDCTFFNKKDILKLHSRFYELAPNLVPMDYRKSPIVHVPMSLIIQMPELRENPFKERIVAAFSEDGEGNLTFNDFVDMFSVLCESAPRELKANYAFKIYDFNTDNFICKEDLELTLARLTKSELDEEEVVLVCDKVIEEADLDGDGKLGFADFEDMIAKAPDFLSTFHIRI
Description: SPR interaction of α7B peptides with immobilized CIB2. The class given is binding. The conditions noted are these: for ka2 association rate constant, CIB2-α7B_M-CIB2 complex / koff / Kd: His-CIB2; for ka2 association rate constant, CIB2-α7B_M-CIB2 complex / kon / koff: average ± SEM; for kon: His-CIB2 on His-cap chip, peptide 230 nM–30 μM, read-out: ka1 association rate constant, CIB2-α7B_M complex; for Kd: ratio kd1/ka1, read-out: KD^app1 apparent affinity for the first binding event. An excerpt:
SPR was also used to study quantitatively the interaction of CIB2 with one of its established targets, namely the cytoplasmic domain of integrin α7B[3],[7]. Three different peptides were used in the interaction experiments. A peptide corresponding to the membrane proximal segment of the cytoplasmic domain of α7B integrin (α7B_M), another peptide with the same amino acid content, but randomized sequence (α7B_Scrb) and a peptide covering the C-terminal region of the cytoplasmic domain of α7B integrin (α7B_C). Three different approaches were used. In a first approach, His-tagged CIB2 was initially coupled to the surface of a His-cap sensor chip (see Methods), thus ensuring homogeneous site-specific orientation, and then blocked via standard amine coupling. […] The minor differences in the spectra at the level of the phenylalanine band can be ascribed to the TEV-protease recognition site (ENLYFQ), uncleaved in the His-tagged protein. […] In a third approach, we used the same low levels of CIB2 immobilization via amine coupling described in the experiments to probe CIB2 dimerization (100–200 RU) and flowed the three peptides.
The second approach (direct peptide immobilization) led to very low signals and unreproducible results and was not pursued any further. […] In spite of such differences, which might reflect both the heterogeneity of the surface and the different chemistry of immobilization, interaction results were consistent with one another. […] It should be noted that both Huang et al.[7] and Häger et al.[3] used peptides from mouse integrin, while we used the corresponding human sequences, which in the case of α7B_C lacks the tryptophan residue present in the mouse sequence. It is not uncommon that fluorescence spectroscopy interaction studies based on the peptide intrinsic fluorescence (CIB2 has no tryptophan residue) reveal some non-specific binding, especially when a highly hydrophobic protein such as CIB2 is the ligand. […] It cannot be excluded that a similar phenomenon occurred for murine α7B_C in the work by Häger et al.[3]. Our present results, based on accurate, label-free interaction studies clearly identify the region covered by α7B_M as the preferential binding site of CIB2 with α7B integrin.
SPR titrations of α7B_M over homogeneously coupled CIB2 (approach 1) gave very reproducible results and were performed both in the presence of 1 mM Mg^2+ and in the co-presence of 1 mM Mg^2+ and 2 mM Ca^2+. Peptide concentration was varied in the 230 nM–30 μM range. As anticipated, sensorgrams could not fit to a 1:1 binding model, and the kinetic model that better fit the data was a bivalent analyte model (see Methods), in which one α7B_M peptide could bind to two CIB2 molecules. According to this scheme, binding of the peptide to the first CIB2 molecule would direct the binding to the second one, thus resulting in two sets of kinetic constants.
Details of the protein and peptide immobilization procedures and experimental settings are elucidated in the Supplementary Information.
Kinetic data were fitted according to a bivalent analyte model, were a CIB2 monomer (L) can bind an α7B_M peptide (A), and the resulting complex (AL) can bind to a second CIB2 molecule (AL2), with all processes being possibly reversible, as follows: A+L→ka1ALAL→kd1A+LAL+L→ka2AL2AL2→kd2AL+L […]

Data set [1] can be described thus: Native ESI-MS oligomeric state of CIB2. Conditions: 14 µM CIB2 in 200 mM ammonium acetate, pH 6.8; collision energy 60 V. The class given is physicochemical. As for the experimental part:
For native ESI-MS analyses (High-Mass Q-TOF II mass spectrometer, Waters/MSVision), CIB2 was prepared in 200 mM ammonium acetate, pH 6.8.

A short description of data set [2]: CIB2 stability at 25 °C without trypsin (SDS-PAGE). The class given is physicochemical. Conditions: 10 µM CIB2, 10 minutes at 25 °C; EDTA, Mg^2+, Mg^2+ + Ca^2+. As to the method: Figure 5 CIB2 limited proteolysis. (A) 10 µM CIB2 was incubated at 25 °C in the presence of 1 mM EDTA (Apo), 500 µM EGTA + 1 mM Mg^2+ (Mg^2+) and 1 mM Mg^2+ + 2 mM Ca^2+ for 10 minutes at 25 °C. Samples were boiled and loaded in a 18% SDS polyacrylamide gel. (B) Limited proteolysis was performed incubating trypsin with 25 µM CIB2 in the same concentrations of ions used for (A) (protein:enzyme ratio was 100:1). Samples were collected at different times, boiled and loaded on a 18% SDS-PAGE. Both gels run for 45–50 min, then they were Coomassie Blue-stained. The figure results from two separate gels, which have been reported in full length in Fig. S6.

For data set [3] the following is noted: cited from earlier work. An excerpt:
Moreover, DLS experiments performed with the samples collected immediately after elution from the SEC column measured a relatively high hydrodynamic diameter (d^Mg = 8.43 nm and d^Ca = 8.18 nm), which was also interpreted as an evidence of a dimeric protein[8]. […] This shoulder (here denominated A1) was collected together with the main peak (A2) in our previous work[8]. In contrast, the two fractions were separately collected and analyzed in the present study.

Several values for one entry are separate records, joined by “and”; a condition that tells them apart may be missing. Equal values may be shown once. Read-outs that look alike come from different tables or passages of the source. Where a SMILES comes first, the peptide text is derived from it.

Regarding `CSCC[C@H](NC(=O)[C@H](CCCCN)NC(=O)[C@H](Cc1c[nH]c2ccccc12)NC(=O)[C@H](CC(C)C)NC(=O)[C@H](CC(C)C)NC(=O)[C@H](CC(C)C)NC(C)=O)C(=O)NCC(=O)N[C@@H](Cc1ccccc1)C(=O)N[C@@H](Cc1ccccc1)C(=O)N[C@@H](CCCCN)C(=O)N[C@@H](CCCNC(=N)N)C(=O)N[C@@H](C)C(=O)N[C@@H](CCCCN)C(=O)N[C@@H](Cc1c[nH]cn1)C(=O)N1CCC[C@H]1C(=O)N[C@@H](CCC(=O)O)C(N)=O` [α7B_M] (Ac-LLLWKMGFFKRAKHPE-NH2), the “SPR interaction with CIB2” value at human CIB2 (His-CIB2 capture (7.5 µM peptide, or 230 nM–30 μM) and amine-coupled untagged CIB2 (7.5–30 µM), 1 mM Mg^2+, 2 mM Ca^2+, experiments repeated 4 times) is recorded as “binds to CIB2 significantly stronger than the control peptide α7B_Scrb”. Further, on human CIB2 (KD^app1), the “first-event affinity in Mg^2+ + Ca^2+ compared to Mg^2+ alone” value is on record as “roughly half affinity”. For the same molecule, at human CIB2 (Mg^2+ + Ca^2+ vs Mg^2+), the “faster dissociation of the second CIB2 molecule in co-presence of Mg^2+ and Ca^2+” value worked out at 2.5 times. Besides, the “affinity for CIB2” value at human CIB2 (SPR) is reported as “relatively low affinity interaction”. Moreover, the “ka2 association rate constant, CIB2-α7B_M-CIB2 complex” value on human CIB2 (bivalent analyte model, 1 mM Mg^2+ 2 mM Ca^2+, pH 7.5, N = 15) is listed as “(4.2 ± 0.5) × 10^−4 RU^−1s^−1”; at human CIB2 (bivalent analyte model, 1 mM Mg^2+, 230 nM–30 μM, pH 7.5, N = 16), “(1.9 ± 0.4) × 10^−3 RU^−1s^−1”. For the same molecule, the kon at human CIB2 (bivalent analyte model, 1 mM Mg^2+, 20 mM HEPES pH 7.5, 150 mM KCl, 1 mM DTT, 50 µM EDTA, 0.005% Tween, N = 16) worked out at 31000 M⁻¹ s⁻¹; at human CIB2 (pH 7.5, bivalent analyte model, 1 mM Mg^2+ 2 mM Ca^2+, pH 7.5, N = 15), 16000 M⁻¹ s⁻¹. In addition, the “association of first CIB2 faster in sole Mg^2+ vs co-presence of Ca^2+ (fold)” value on human CIB2 (first binding event, Mg^2+ vs Mg^2+ + Ca^2+) is recorded as 2 fold. In addition, the “dissociation from CIB2” value at human CIB2 (followed for 240 s, flow rate 20 μl min−1) is listed as “complete protein-peptide dissociation”. For the same molecule, the koff on human CIB2 (pH 7.5, bivalent analyte model, 1 mM Mg^2+ 2 mM Ca^2+, pH 7.5, N = 15, read-out: kd1 dissociation rate constant, CIB2-α7B_M complex) was 0.4 s⁻¹; at human CIB2 (pH 7.5, bivalent analyte model, 1 mM Mg^2+ 2 mM Ca^2+, pH 7.5, N = 15, read-out: kd2 dissociation rate constant, CIB2-α7B_M-CIB2 complex), 0.053 s⁻¹; on human CIB2 (pH 7.5, bivalent analyte model, 1 mM Mg^2+, 230 nM–30 μM, pH 7.5, N = 16, read-out: kd1 dissociation rate constant, CIB2-α7B_M complex) it was 0.36 s⁻¹; at human CIB2 (pH 7.5, bivalent analyte model, 1 mM Mg^2+, 230 nM–30 μM, pH 7.5, N = 16, read-out: kd2 dissociation rate constant, CIB2-α7B_M-CIB2 complex), 0.02 s⁻¹. Moreover, the Kd on human CIB2 (1 mM Mg^2+ 2 mM Ca^2+, pH 7.5, N = 15) worked out at 25 ± 5 µM; on human CIB2 (1 mM Mg^2+, pH 7.5, N = 16) it was 11.6 ± 1.8 µM. Moreover, the “association of second CIB2 faster in sole Mg^2+ vs co-presence of Ca^2+ (fold)” value at human CIB2 (second binding event, Mg^2+ vs Mg^2+ + Ca^2+) is recorded as 5 fold.

B1: CIB2: Recombinant human CIB2, Ca^2+ and Mg^2+-binding protein (protein)
chain: T1 sequence (O75838 1-187)
modifications: left off: His tag, end not stated, cleaved
Turning to B1, in data set [1], the “oligomeric state, native MS” value is on record as “no signals of CIB2 dimers, nor higher order oligomers were detected”. Also, the degradation without trypsin entry in data set [2] is on record as “some propensity to degradation”. In data set [3] (Ca^2+, collected immediately after SEC), the “hydrodynamic diameter d^Ca” value is recorded as 8.18 nm. In addition, the “hydrodynamic diameter d^Mg” value in data set [3] (Mg^2+, A1 and A2 collected in one sample) was 8.43 nm and 8.4 nm.
